According to ChEMBL document CHEMBL1201862, “PubChem BioAssay data set” (2004):
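Five concentrations, 48 hours, 96-well plates. Abbreviation: GI50, concentration required for 50% inhibition of growth.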 Active and inactive are the calls of the source. Rule as the data show it: active = GI50 up to about 1.1 µM and inactive = higher.

Key:
Experiment in all cases: growth of human tumour cells (NCI), 48 h
786-0 = system: 786-0
A498 = system: A498
A549 = system: A549
ACHN = system: ACHN
BT-549 = system: BT-549
CAKI-1 = system: CAKI-1
CCRF-CEM = system: CCRF-CEM
COLO 205 = system: COLO 205
DU-145 = system: DU-145
EKVX = system: EKVX
HCC 2998 = system: HCC 2998
HCT-116 = system: HCT-116
HCT-15 = system: HCT-15
HL-60 = system: HL-60
HOP-62 = system: HOP-62
HOP-92 = system: HOP-92
HT-29 = system: HT-29
Hs-578T = system: Hs-578T
IGROV-1 = system: IGROV-1
K562 = system: K562
KM12 = system: KM12
LOX IMVI = system: LOX IMVI
M14 = system: M14
MCF7 = system: MCF7
MDA-MB-231 = system: MDA-MB-231
MDA-MB-435 = system: MDA-MB-435
MDA-N = system: MDA-N
MOLT-4 = system: MOLT-4
NCI-H226 = system: NCI-H226
NCI-H23 = system: NCI-H23
NCI-H460 = system: NCI-H460
NCI-H522 = system: NCI-H522
NCI/ADR-RES = system: NCI/ADR-RES
OVCAR-3 = system: OVCAR-3
OVCAR-4 = system: OVCAR-4
OVCAR-5 = system: OVCAR-5
OVCAR-8 = system: OVCAR-8
PC-3 = system: PC-3
RPMI-8226 = system: RPMI-8226
RXF 393 = system: RXF 393
SF-268 = system: SF-268
SF-295 = system: SF-295
SF-539 = system: SF-539
SK-MEL-28 = system: SK-MEL-28
SK-MEL-2 = system: SK-MEL-2
SK-MEL-5 = system: SK-MEL-5
SK-OV-3 = system: SK-OV-3
SN12C = system: SN12C
SNB-19 = system: SNB-19
SNB-75 = system: SNB-75
SR = system: SR
SW-620 = system: SW-620
T47D = system: T47D
TK-10 = system: TK-10
U-251 = system: U-251
UACC-257 = system: UACC-257
UACC-62 = system: UACC-62
UO-31 = system: UO-31
Malme-3M = system: Malme-3M

CC(=O)N(C)C(C(=O)N1CC(C)CC1C(=O)N(C)C1C(=O)NC(CC(C)C)C(=O)N2CC(C)CC2C(=O)NC(CC(C)C)C(=O)N(C)C(C(C)C)C(=O)N2CCCC2C(=O)N(C)C(CC(C)C)C(=O)NCC(=O)OC1C)C(C)C (stereo not given)
GI50 (786-0): > 100 µM (inactive) | GI50 (A498): > 100 µM (inactive) | GI50 (A549): > 100 µM (inactive) | GI50 (ACHN): > 100 µM (inactive) | GI50 (BT-549): > 100 µM (inactive) | GI50 (CAKI-1): > 100 µM (inactive) | GI50 (CCRF-CEM): > 100 µM (inactive) | GI50 (COLO 205): > 100 µM (inactive) | GI50 (DU-145): > 100 µM (inactive) | GI50 (EKVX): > 100 µM (inactive) | GI50 (HCC 2998): > 100 µM (inactive) | GI50 (HCT-116): > 100 µM (inactive) | GI50 (HCT-15): > 100 µM | GI50 (HL-60): > 100 µM (inactive) | GI50 (HOP-62): > 100 µM (inactive) | GI50 (HOP-92): > 100 µM (inactive) | GI50 (HT-29): > 100 µM (inactive) | GI50 (Hs-578T): > 100 µM (inactive) | GI50 (IGROV-1): 72.1 µM (inactive) | GI50 (K562): > 100 µM (inactive) | GI50 (KM12): > 100 µM (inactive) | GI50 (LOX IMVI): > 100 µM (inactive) | GI50 (M14): > 100 µM (inactive) | GI50 (MCF7): > 100 µM (inactive) | GI50 (MDA-MB-231): > 100 µM (inactive) | GI50 (MDA-MB-435): > 100 µM (inactive) | GI50 (MDA-N): > 100 µM (inactive) | GI50 (MOLT-4): > 100 µM (inactive) | GI50 (NCI-H226): > 100 µM (inactive) | GI50 (NCI-H23): > 100 µM (inactive) | GI50 (NCI-H460): > 100 µM (inactive) | GI50 (NCI-H522): > 100 µM (inactive) | GI50 (NCI/ADR-RES): > 100 µM (inactive) | GI50 (OVCAR-3): > 100 µM (inactive) | GI50 (OVCAR-4): > 100 µM (inactive) | GI50 (OVCAR-5): > 100 µM (inactive) | GI50 (OVCAR-8): > 100 µM (inactive) | GI50 (PC-3): > 100 µM (inactive) | GI50 (RPMI-8226): > 100 µM (inactive) | GI50 (RXF 393): > 100 µM (inactive) | GI50 (SF-268): > 100 µM (inactive) | GI50 (SF-295): > 100 µM (inactive) | GI50 (SF-539): > 100 µM (inactive) | GI50 (SK-MEL-28): > 100 µM (inactive) | GI50 (SK-MEL-2): > 100 µM (inactive) | GI50 (SK-MEL-5): > 100 µM (inactive) | GI50 (SK-OV-3): > 100 µM (inactive) | GI50 (SN12C): > 100 µM (inactive) | GI50 (SNB-19): > 100 µM (inactive) | GI50 (SNB-75): > 100 µM (inactive) | GI50 (SR): > 100 µM (inactive) | GI50 (SW-620): > 100 µM (inactive) | GI50 (T47D): > 100 µM (inactive) | GI50 (TK-10): > 100 µM (inactive) | GI50 (U-251): > 100 µM (inactive) | GI50 (UACC-257): > 100 µM (inactive) | GI50 (UACC-62): > 100 µM (inactive) | GI50 (UO-31): > 100 µM (inactive)

N=C(c1cccs1)C1(N2CCCCC2)CCCCC1
GI50 (786-0): 70.5 µM (inactive) | GI50 (A498): 17.7 µM (inactive) | GI50 (A549): 27.7 µM (inactive) | GI50 (ACHN): 16.9 µM (inactive) | GI50 (BT-549): 24.5 µM (inactive) | GI50 (CAKI-1): 15.3 µM (inactive) | GI50 (CCRF-CEM): 17.7 µM (inactive) | GI50 (DU-145): 15.8 µM (inactive) | GI50 (EKVX): 20.9 µM (inactive) | GI50 (HCC 2998): 14.1 µM (inactive) | GI50 (HCT-116): 42.2 µM (inactive) | GI50 (HCT-15): 14.8 µM | GI50 (HL-60): 13.2 µM (inactive) | GI50 (HOP-62): 20.3 µM (inactive) | GI50 (HOP-92): 20.8 µM (inactive) | GI50 (HT-29): 17.3 µM (inactive) | GI50 (Hs-578T): 57.4 µM (inactive) | GI50 (IGROV-1): 22.3 µM (inactive) | GI50 (K562): 16.4 µM (inactive) | GI50 (KM12): 17.6 µM (inactive) | GI50 (LOX IMVI): 28.2 µM (inactive) | GI50 (M14): 20.3 µM (inactive) | GI50 (MCF7): 16.6 µM (inactive) | GI50 (MDA-MB-231): 16.6 µM (inactive) | GI50 (MDA-MB-435): 18.2 µM (inactive) | GI50 (MDA-N): 49.5 µM (inactive) | GI50 (MOLT-4): 15.7 µM (inactive) | GI50 (Malme-3M): 14.6 µM (inactive) | GI50 (NCI-H23): 24.3 µM (inactive) | GI50 (NCI-H460): 15.7 µM (inactive) | GI50 (NCI-H522): 14.8 µM (inactive) | GI50 (NCI/ADR-RES): 25.4 µM (inactive) | GI50 (OVCAR-3): 15.3 µM (inactive) | GI50 (OVCAR-4): 20.5 µM (inactive) | GI50 (OVCAR-5): 19.4 µM (inactive) | GI50 (PC-3): 18.7 µM (inactive) | GI50 (RPMI-8226): 16.5 µM (inactive) | GI50 (RXF 393): 14.6 µM (inactive) | GI50 (SF-268): 21.1 µM (inactive) | GI50 (SF-295): 18.2 µM (inactive) | GI50 (SK-MEL-2): 16.6 µM (inactive) | GI50 (SK-OV-3): 19.6 µM (inactive) | GI50 (SN12C): 33.8 µM (inactive) | GI50 (SNB-19): 17.5 µM (inactive) | GI50 (SR): 16.9 µM (inactive) | GI50 (SW-620): 16.6 µM (inactive) | GI50 (T47D): 11.6 µM (inactive) | GI50 (TK-10): 17.3 µM (inactive) | GI50 (U-251): 16.4 µM (inactive) | GI50 (UACC-257): 15.6 µM (inactive) | GI50 (UACC-62): 14.9 µM (inactive) | GI50 (UO-31): 16.1 µM (inactive)
